Data taken from patent EP4786486A1, “PEPTIDES FOR TREATING CARDIAC DISEASES” (Universidad Complutense De Madrid, priority 2023, dated 2025).
Where a SMILES comes first, the peptide text is derived from it. The star is where a group is joined. FITC = O=C1OC2(c3ccc(O)cc3Oc3cc(O)ccc32)c2ccc(NC(=S)*)cc21; Palmitoyl = CCCCCCCCCCCCCCCC(=O)*

How the values were obtained:
HEK293 cells = assay: Access to the cell interior of fluorescent peptides, fluorescence microscopy; type: cell-based; conditions: 24 hours, 10 µM, green fluorescent signal
[1] = system: human cardiac Nav1.5 channels; assay: INa by whole-cell patch-clamp in CHO cells incubated with synthetic peptide; type: cell-based; conditions: CHO cells expressing Nav1.5, incubated 24 hours, 10 µM, vs untreated control cells
Method: (§1) To analyse the effect of the peptides designed in example 1 on INa and IK1, the cDNA that encodes SEQ ID NO: 3 or SEQ ID NO: 4, described in SEQ ID NO: 5 and 20, respectively, was cloned into a pcDNA3.1^(+)® vector (Invitrogen) for transfection of Chinese hamster ovary (CHO) cells that were in turn transfected with the cDNA that encodes the human Nav1.5 channels (SEQ ID NO: 21). The CHO cells were further co-transfected with the EBO-pcD leu 2 vector (0.5 µg), which encodes the expression of the CD8 surface antigen. The subsequent addition of anti-CD8 antibody, bonded to Dynabeads M450® microspheres, allowed the cells that had been transfected to be identified. […] The currents were recorded at 20-22°C using an Axopatch 200B amplifier, filtered at half the sampling frequency and stored in a computer for further analysis. […] The capacitive current artefacts generated after the application of pulses from 0 mV to +10 mV were recorded at 50 kHz (filtered at 10 kHz) to calculate the capacitance of the cell, the access resistance and the input impedance. […] INa was recorded by applying 50 ms pulses from a holding potential of -120 mV to potentials between -80 and +50 mV in 5 mV increments. […]

[2] = Conformational study by circular dichroism (helicity); type: physicochemical; conditions: for Helicity in 60:40 H2O/TFE (%) / Helicity in H2O (%): circular dichroism, 10 µM, 5°C
Method: Circular dichroism spectra were recorded in aqueous solution and in a 60:40 H2O:trifluoroethanol (TFE) mixture. The concentration used was 10 µM and the temperature (T) was adjusted to 5°C. Measurements were made between 190 and 250 nm using a 0.1 cm optical pitch cell. The experiments were carried out at a scanning rate of 50 nm/min, a response time of 2 s and a bandwidth of 1 nm. The spectra obtained are the average of 4 sweeps to which the baseline was corrected.
To calculate helicity, the equation [θ]222/[θ]max. was used, where [θ]max = (-44000+250T) ([…]). As a finite length correction value (k), the value of k = 4 was taken, while n refers to the number of residues in the peptides. Table 6. Helicity observed by circular dichroism for the peptides studied.

[3] = Stability in human blood serum, UPLC-MS; type: in vitro ADME; conditions: 37°C
Method: A 1 mM dilution of the peptide in water was prepared and 0.5 ml was taken and mixed with 0.5 ml of human serum. The resulting solution was incubated for 72 hours at 37°C. After 24 hours and 72 hours, 120 µl aliquots were taken and treated with 20 µl trifluoroacetic acid to precipitate the proteins. After 30 minutes at 4°C, the mixture was centrifuged at 13000 g and 4°C. The supernatant, once filtered, was analysed by UPLC-MS using a C18 Bridge column (3.0 mm x 50 mm, 2.5 µm) and a gradient of 15 and 50% CH3CN (0.1% formic acid) in H2O (0.1% formic acid) over 5 minutes.

human Nav1.5 channels = target: T1, human Nav1.5 channels (Homo sapiens, UniProt Q14524); assay: INa density, whole-cell patch-clamp in CHO cells co-transfected with Nav1.5 and the cDNA encoding the peptide; type: cell-based; conditions: vs. cells transfected only with Nav1.5 channels, various membrane potentials, P<0.05
T1 construct: expressed in transfected cells; host or cells: CHO (Chinese hamster ovary) cells
Method: as §1

T1 sequence (Q14524 1-2015 isoform Q14524-2): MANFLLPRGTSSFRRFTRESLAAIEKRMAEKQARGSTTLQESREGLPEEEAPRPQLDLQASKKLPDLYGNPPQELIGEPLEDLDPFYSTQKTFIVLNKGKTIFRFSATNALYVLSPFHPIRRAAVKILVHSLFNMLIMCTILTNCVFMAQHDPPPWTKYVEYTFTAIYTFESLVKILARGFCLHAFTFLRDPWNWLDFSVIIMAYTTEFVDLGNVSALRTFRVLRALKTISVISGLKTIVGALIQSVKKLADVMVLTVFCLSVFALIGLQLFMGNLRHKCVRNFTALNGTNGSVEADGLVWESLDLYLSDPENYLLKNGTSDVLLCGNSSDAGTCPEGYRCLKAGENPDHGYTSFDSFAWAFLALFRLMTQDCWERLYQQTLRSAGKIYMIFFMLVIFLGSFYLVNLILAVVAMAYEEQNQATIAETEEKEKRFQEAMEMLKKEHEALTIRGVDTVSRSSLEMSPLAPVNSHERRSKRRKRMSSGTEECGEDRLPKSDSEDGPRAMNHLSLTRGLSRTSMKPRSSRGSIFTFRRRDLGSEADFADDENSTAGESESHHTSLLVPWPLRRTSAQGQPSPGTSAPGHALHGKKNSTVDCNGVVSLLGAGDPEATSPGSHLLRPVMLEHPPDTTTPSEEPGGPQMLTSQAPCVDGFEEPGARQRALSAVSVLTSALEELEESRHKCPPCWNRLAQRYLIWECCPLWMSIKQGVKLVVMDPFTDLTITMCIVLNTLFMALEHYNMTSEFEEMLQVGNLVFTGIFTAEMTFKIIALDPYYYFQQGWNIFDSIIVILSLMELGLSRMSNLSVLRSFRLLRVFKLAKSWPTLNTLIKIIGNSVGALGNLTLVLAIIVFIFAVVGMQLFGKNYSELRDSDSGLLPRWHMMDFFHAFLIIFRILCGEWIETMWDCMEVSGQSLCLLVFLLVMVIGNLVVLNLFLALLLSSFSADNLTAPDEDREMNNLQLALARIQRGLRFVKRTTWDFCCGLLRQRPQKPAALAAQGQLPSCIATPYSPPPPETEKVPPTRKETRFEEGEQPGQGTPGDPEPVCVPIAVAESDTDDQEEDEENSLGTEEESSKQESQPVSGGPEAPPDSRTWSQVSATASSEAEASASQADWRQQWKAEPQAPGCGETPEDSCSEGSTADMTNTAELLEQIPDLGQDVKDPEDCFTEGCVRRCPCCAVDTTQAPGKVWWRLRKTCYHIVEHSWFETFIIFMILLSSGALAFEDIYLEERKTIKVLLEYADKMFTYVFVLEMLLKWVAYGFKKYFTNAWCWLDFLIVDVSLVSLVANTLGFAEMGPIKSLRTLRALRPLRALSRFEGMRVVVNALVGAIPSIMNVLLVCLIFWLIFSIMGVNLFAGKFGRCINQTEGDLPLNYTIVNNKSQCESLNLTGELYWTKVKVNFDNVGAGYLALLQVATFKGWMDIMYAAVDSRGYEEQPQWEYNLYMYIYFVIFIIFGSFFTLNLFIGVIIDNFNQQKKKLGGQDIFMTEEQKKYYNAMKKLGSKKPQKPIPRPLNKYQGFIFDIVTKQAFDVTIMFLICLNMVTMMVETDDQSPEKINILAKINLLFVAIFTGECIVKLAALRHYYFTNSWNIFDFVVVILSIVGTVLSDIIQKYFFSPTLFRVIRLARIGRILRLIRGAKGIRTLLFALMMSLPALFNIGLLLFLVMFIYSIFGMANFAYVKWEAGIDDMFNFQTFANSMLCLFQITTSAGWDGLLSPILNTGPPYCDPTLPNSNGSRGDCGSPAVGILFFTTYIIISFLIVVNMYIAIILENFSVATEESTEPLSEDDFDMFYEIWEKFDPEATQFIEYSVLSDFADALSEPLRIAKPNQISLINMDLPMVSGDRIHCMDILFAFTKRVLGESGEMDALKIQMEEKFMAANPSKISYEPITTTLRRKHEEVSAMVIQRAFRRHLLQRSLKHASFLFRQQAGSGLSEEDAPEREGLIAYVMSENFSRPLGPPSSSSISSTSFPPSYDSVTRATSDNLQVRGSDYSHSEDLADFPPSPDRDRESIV

Molecule: CC[C@H](C)[C@H](NC(=O)[C@H](C)NC(=O)[C@H](C)NC(=O)[C@H](CC(C)C)NC(=O)[C@H](CO)NC(=O)[C@H](CCC(=O)O)NC(=O)[C@H](CCCNC(=N)N)NC(=O)[C@@H](NC(=O)[C@H](Cc1ccccc1)NC(=O)[C@H](CCCNC(=N)N)NC(C)=O)[C@@H](C)O)C(=O)N[C@@H](CCC(=O)O)C(=O)N[C@@H](CCCCNC(=S)Nc1ccc2c(c1)C(=O)OC21c2ccc(O)cc2Oc2cc(O)ccc21)C(N)=O [Ac-SEQ ID NO: 23(SF)-NH2, Ac-RFTRESLAAlEK(SF)-NH2] (Ac-RFTRESLAAIEK(FITC)-NH2)
- ability to penetrate into the cell interior (HEK293 cells): not able to penetrate

Molecule: Pal-RFTRESLAAIEK-NH2 (Palmitoyl-RFTRESLAAIEK-NH2; SMILES CCCCCCCCCCCCCCCC(=O)N[C@@H](CCCNC(=N)N)C(=O)N[C@@H](Cc1ccccc1)C(=O)N[C@H](C(=O)N[C@@H](CCCNC(=N)N)C(=O)N[C@@H](CCC(=O)O)C(=O)N[C@@H](CO)C(=O)N[C@@H](CC(C)C)C(=O)N[C@@H](C)C(=O)N[C@@H](C)C(=O)N[C@H](C(=O)N[C@@H](CCC(=O)O)C(=O)N[C@@H](CCCCN)C(N)=O)[C@@H](C)CC)[C@@H](C)O) [Pal-SEQ ID NO: 23-NH2]
- INa [1]: statistically significantly increase INa

Molecule: CCCCCCCCCCCCCCCC(=O)N[C@@H](CCCNC(=N)N)C(=O)N[C@@H](Cc1ccccc1)C(=O)N[C@H](C(=O)N[C@@H](CCCNC(=N)N)C(=O)N[C@@H](CCC(=O)O)C(=O)N[C@@H](CO)C(=O)N[C@@H](CC(C)C)C(=O)N[C@@H](C)C(=O)N[C@@H](C)C(=O)N[C@H](C(=O)N[C@@H](CCC(=O)O)C(=O)N[C@@H](CCCCNC(=S)Nc1ccc2c(c1)C(=O)OC21c2ccc(O)cc2Oc2cc(O)ccc21)C(N)=O)[C@@H](C)CC)[C@@H](C)O [Pal-SEQ ID NO: 23(SF)-NH2, Pal-RFTRESLAAIEK(SF)-NH2] (Palmitoyl-RFTRESLAAIEK(FITC)-NH2)
- ability to penetrate into the cell interior (HEK293 cells): good ability to penetrate

Molecule: Ac-FTRESLAAIEKR-NH2 [Ac-SEQ ID NO: 26-NH2, Ac-FTRESLAAIEKR-NH2]
- Helicity in 60:40 H2O/TFE (%) [2]: 35.5%
- Helicity in H2O (%) [2]: 10.8%
- remaining at 24 h, 0.5 mM ([3]; human blood serum diluted 50:50 with water, human blood serum/H2O (50:50), after 24 hours of incubation, read-out: peptide remained unchanged): 82%
- half-life ([3]; human blood serum, estimated taking into account serum concentration of 50%): 27 h

Molecule: Pal-FTRESLAAIEK-NH2 (Palmitoyl-FTRESLAAIEK-NH2; SMILES CCCCCCCCCCCCCCCC(=O)N[C@@H](Cc1ccccc1)C(=O)N[C@H](C(=O)N[C@@H](CCCNC(=N)N)C(=O)N[C@@H](CCC(=O)O)C(=O)N[C@@H](CO)C(=O)N[C@@H](CC(C)C)C(=O)N[C@@H](C)C(=O)N[C@@H](C)C(=O)N[C@H](C(=O)N[C@@H](CCC(=O)O)C(=O)N[C@@H](CCCCN)C(N)=O)[C@@H](C)CC)[C@@H](C)O) [Pal-SEQ ID NO: 25-NH2]
- INa [1]: statistically significantly increase INa

Molecule: Ac-RFTRESLAAIE-NH2 [Ac-SEQ ID NO: 3-NH2, Ac-RFTRESLAAIE-NH2]
- Helicity in 60:40 H2O/TFE (%) [2]: 32.3%
- Helicity in H2O (%) [2]: 2.7%

Molecule: Ac-FTRESLAAIEK-NH2 [Ac-SEQ ID NO: 25-NH2, Ac-FTRESLAAIEK-NH2]
- Helicity in 60:40 H2O/TFE (%) [2]: 46.2%
- Helicity in H2O (%) [2]: 10.7%
- increase in helicity in H2O ([2]; compared with Ac-SEQ ID NO: 3-NH2): 8%

Molecule: EKRMAEKQARGSTTL (listed as Homo sapiens) [SEQ ID NO: 4, 15-amino acid peptide, amino acids 25-39 of human Nav1.5]
- density of INa (human Nav1.5 channels): did not
